Target: Trypanothione reductase (Trypanosoma cruzi, UniProt P28593)
Assay: Inhibition of Trypanosoma cruzi TryR using trypanothione as substrate preincubated for 10 mins

Trypanothione reductase, sequence (P28593 whole entry): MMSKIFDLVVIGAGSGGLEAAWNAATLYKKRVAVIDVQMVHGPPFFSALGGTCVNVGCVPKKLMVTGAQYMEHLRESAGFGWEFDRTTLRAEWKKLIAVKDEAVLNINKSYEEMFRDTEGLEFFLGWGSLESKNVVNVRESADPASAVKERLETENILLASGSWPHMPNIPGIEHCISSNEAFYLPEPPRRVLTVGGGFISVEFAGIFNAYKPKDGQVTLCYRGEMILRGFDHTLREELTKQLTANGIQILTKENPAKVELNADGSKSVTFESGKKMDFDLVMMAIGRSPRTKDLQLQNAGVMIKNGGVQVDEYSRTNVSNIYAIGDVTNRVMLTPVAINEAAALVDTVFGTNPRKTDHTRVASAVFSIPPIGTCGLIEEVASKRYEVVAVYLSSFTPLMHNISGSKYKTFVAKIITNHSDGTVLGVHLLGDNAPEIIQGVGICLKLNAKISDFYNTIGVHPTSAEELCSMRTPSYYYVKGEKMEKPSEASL

Compound	Ki [µM]
O=C(CNc1ccc(S(=O)(=O)N2CCCCC2)cc1)CSc1ncc(-c2ccc(Cl)cc2)n1-c1ccccc1	22.3
COCCn1c(-c2ccccc2)cnc1SCC(=O)CNc1ccc(S(=O)(=O)N2CCCCC2)cc1	11.1
N#Cc1c(NC(=O)CSc2nc(-c3ccc(Cl)cc3)c[nH]2)sc2c1CCCC2	9.3
Cc1ccc2nc(Cc3ccc(NC(=O)C(C)Oc4ccccc4)cc3)[nH]c2c1 (centres undefined)	26.9
Cc1ccc2[nH]c(Cc3ccc(NC(=O)CCc4nc5ccccc5[nH]4)cc3)nc2c1	13.1
Cc1sc2ncn3c(SCC(=O)Nc4sc5c(c4C#N)CCCC5)nnc3c2c1C	11.8
CCn1c(-c2ccccc2)cnc1SCC(=O)Nc1ccc(C2CCCCC2)cc1	5.7
Nc1ccc2[nH]c(CCCCCCCCc3nc4cc(N)ccc4[nH]3)nc2c1	10.6
CCn1c(-c2ccccc2)cnc1SCC(=O)Nc1sc2c(c1C#N)CCCC2	13.1

— ChEMBL document CHEMBL1821573, “A fast virtual screening approach to identify structurally diverse inhibitors of trypanothione reductase” (Bioorg Med Chem Lett, 2011)
